The results in this text go back to patent publication US6696417B1, “Skin and hair darkening composition” (Chesebrough-Pond's USA Co., division of Conopco, Inc., priority 1997, dated 2004).

The test system of experiment [1] is tyrosinase. The experiment can be described thus: In vitro enhancement of melanin formation (Example 3). The format is biochemical. Particulars: 18 nmoles polyamino acid; DL-DOPA, 20 nmoles lysozyme, 0.45 mg tyrosinase, acetate buffer pH 5.0; absorbance at 400 nm; control 0.120. The method, then: (§1) The assay conditions for the formation of melanin under in vitro conditions are as follows.
The control assay mixture contained 5 mmoles of DL-DOPA (Dihydroxy phenyl alanine), lysozyme 20 nmoles and 0.45 mg of tyrosinase in acetate buffer pH 5.0 in a test tube. In the experimental set 18 nmoles of the polyglutamate, a polyamino acid sequence with pI 2.5 or polyarginine pI 10.9 or polylysine pI 11.0 was used in addition to the other ingredients as defined in the control. The melanin formed was washed with the buffer, suspended in 1 N sodium hydroxide and dissolved by heating the sample at 60° C. for 5 minutes. The absorbance was measured at 400 nm.

Experiment [2] has as its system tyrosinase. The experiment can be described thus: In vitro enhancement of melanin formation (Example 1). The format is biochemical.
Source text: as §1
The control assay mixture contained 5 pmoles of DL-DOPA (Dihydroxy phenyl alanine), 20nmoles lysozyme and 3.2 units of tyrosinase in acetate buffer pH 5.0 in a test tube. A unit is defined as the amount of tyrosinase needed to convert 1 nmol DOPA in one minute. In the experimental set 11 nmoles of polylysine, a polyamino acid sequence with pI 11.0, was used in addition to the other ingredients as defined in the control. The melanin formed was washed with the acetate buffer, suspended in 1N sodium hydroxide and dissolved by heating the sample at 60° C. for 5 minutes. The absorbance was measured at 400 nm.

On to polyarginine, for which the “Melanin formed A 400” value in the experiment with tyrosinase [1] amounted to 0.182.

As for polyglutamate [reference compound], in the experiment on tyrosinase [1], the “Melanin formed A 400” value is listed as 0.048.

polylysine: the “Melanin formed A 400” value came out at 0.168 in the experiment with tyrosinase [1] and 0.168 in the experiment with tyrosinase [2] (11 nmoles polyamino acid, DL-DOPA, 20 nmoles lysozyme, 3.2 units tyrosinase, acetate buffer pH 5.0, absorbance at 400 nm, control 0.120). Besides, the “melanin production (in words)” value in the experiment on tyrosinase [2] (in presence of polylysine versus control, pH 5) is given as “significantly enhanced”.
